Data: patent US9790169B2, “IDO inhibitors” (BRISTOL-MYERS SQUIBB COMPANY, priority 2015, dated 2017)

Biological target: human IDO1 (Homo sapiens, UniProt P14902)
Test: Assessment of human IDO-1 inhibitory activity in Hela cells (Interferon-gamma stimulated HeLa cells, Ehrlich reagent, absorbance 490 nm)
Type: cell-based
Set-up: endogenous in cells; host or cells: HeLa cells stimulated with interferon-gamma
Conditions: Hela Human IDO-1 cellular assay
How it was run: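 IDO activity induced by 18 h IFN-γ (human 10 ng/ml or murine 5 ng/ml, final) after 1 h compound pre-treatment of HeLa cells at 37 °C. Supernatant kynurenine detected via Ehrlich reagent absorbance at 490 nm following 3% TCA at 50 °C; IC50 set against no-IFN-γ and untreated-stimulated controls.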

Sequence of human IDO1 (P14902 whole entry): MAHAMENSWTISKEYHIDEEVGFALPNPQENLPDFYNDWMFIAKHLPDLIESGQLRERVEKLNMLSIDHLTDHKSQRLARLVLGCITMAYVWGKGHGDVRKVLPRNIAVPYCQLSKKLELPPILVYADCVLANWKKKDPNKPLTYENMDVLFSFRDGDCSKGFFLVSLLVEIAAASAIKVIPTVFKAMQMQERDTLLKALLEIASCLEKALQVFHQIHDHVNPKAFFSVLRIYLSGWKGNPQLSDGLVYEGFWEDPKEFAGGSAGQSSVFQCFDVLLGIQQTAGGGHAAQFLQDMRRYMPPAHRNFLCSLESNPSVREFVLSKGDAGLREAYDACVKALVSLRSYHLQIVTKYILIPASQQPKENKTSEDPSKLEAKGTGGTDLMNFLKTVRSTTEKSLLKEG

Compound | IC50
CC[C@H](CC(=O)O)c1ccc(N(CC)C2CCOCC2)c(Nc2ccc(OC)cn2)c1 (single isomer, unassigned) [Example 505] | < 50 nM
CCN(c1ccc(C(COC)CC(=O)O)cc1Nc1ccc(Cl)cc1)C1CCS(=O)(=O)CC1 (single isomer, unassigned) [Example 174, 3-(3-((4-chlorophenyl)amino)-4-((1,1-dioxidotetrahydro-2H-thiopyran-4-yl)(ethyl)amino)phenyl)-4-methoxybutanoic acid] | < 50 nM
CCN(c1ccc(C2(CC(=O)O)CCOCC2)cc1NC(=O)Nc1ccc(C)cc1)C1CCOCC1 [Example 157, 2-(4-(4-(Ethyl(tetrahydro-2H-pyran-4-yl)amino)-3-(3-(p-tolyl)ureido)phenyl)tetrahydro-2H-pyran-4-yl)acetic acid] | > 50 nM
CC[C@@H](CC(=O)O)c1ccc(N(CC)C2CCOCC2)c(Nc2cnc(OC)cn2)c1 (single isomer, unassigned) [Example 464] | < 5 nM
CCCN(c1ccc(C(C)(C)CC(=O)O)cc1Nc1ccc(Cl)cc1)C1CCOCC1 [Example 21, 3-(3-((4-Chlorophenyl)amino)-4-(propyl(tetrahydro-2H-pyran-4-yl)amino)phenyl)-3-methylbutanoic acid] | < 5 nM
(R)-3-(3-((4-chlorophenyl)amino)-4-((1,1-dioxidotetrahydro-2H- thiopyran-4-yl)(ethyl)amino) phenyl)-4-isopropoxybutanoic acid [Example 330] | < 5 nM
CCCN(c1ccc([C@H](COC)CC(=O)O)cc1Nc1ccc(F)cc1)C1CCOCC1 (single isomer, unassigned) [Example 572] | < 50 nM
CCN(c1ccc([C@@H](COC)CC(=O)O)cc1NC(=O)Nc1ccc(Cl)cc1F)C1CCOCC1 (single isomer, unassigned) [Example 423] | > 50 nM
CCOc1ncc(Nc2cc([C@H](CC(=O)O)C(F)(F)F)ccc2N(CC)C2CCOCC2)cn1 [Example 598, (S)-3-(3-((2-Ethoxypyrimidin-5-yl)amino)-4-(ethyl(tetrahydro-2H-pyran-4-yl)amino)phenyl)-4,4,4-trifluorobutanoic acid] | < 50 nM
CCN(c1ccc(C(CC(=O)O)C2CC2)cc1Nc1ccc(F)cc1)C1CCS(=O)(=O)CC1 (single isomer, unassigned) [Example 343, 3-cyclopropyl-3-(4-((1,1-dioxidotetrahydro-2H-thiopyran-4-yl)(ethyl)amino)-3-((4-fluorophenyl)amino)phenyl) propanoic acid] | < 5 nM
(R)-3-(4-((1,1-dioxidotetrahydro-2H-thiopyran-4-yl)(ethyl)amino)- 3-((2-ethoxypyrimidin-5- yl)amino)phenyl)-4- isopropoxybutanoic acid [Example 333] | > 50 nM
CCCN(c1ccc([C@H](CC)CC(=O)O)cc1Nc1ccc2nc(C)sc2c1)C1CCOCC1 (single isomer, unassigned) [Example 548] | < 50 nM
COCCN(c1ccc(C(COC)CC(=O)O)cc1NC(=O)Nc1ccc(Cl)cc1F)C1CCOCC1 (single isomer, unassigned) [Example 262, 3-(3-(3-(4-chloro-2-fluorophenyl)ureido)-4-((2-methoxyethyl)(tetrahydro-2H-pyran-4-yl)amino)phenyl)-4-methoxybutanoic acid] | > 50 nM
CC[C@H](CC(=O)O)c1ccc(N(CC)C2CCOCC2)c(Nc2ccc(N(C)C)nc2)c1 (single isomer, unassigned) [Example 506] | > 50 nM
C[C@@H]1CN(c2ccc(C(CC(=O)O)C3CC3)cc2Nc2ccc(Cl)cc2)C[C@H](C)O1 (single isomer, unassigned) [Example 244] | < 50 nM
COCCN(c1ccc(C(C)(C)CC(=O)O)cc1NC(=O)Nc1ccc(C)cc1)C1CCOCC1 [Example 18, 3-(4-((2-Methoxyethyl)(tetrahydro-2H-pyran-4-yl)amino)-3-(3-(p-tolyl)ureido)phenyl)-3-methylbutanoic acid] | > 50 nM
CCC(CC(=O)O)c1ccc(N2CCOCC2)c(Nc2ccc(C#N)cc2)c1 (single isomer, unassigned) [Example 6 Enantiomer 2, 3-(3-((4-Cyanophenyl)amino)-4-morpholinophenyl)pentanoic acid] | < 50 nM
CCCN(c1ccc([C@@H](COC)CC(=O)O)cc1Nc1cnc(OCC)nc1)C1CCOCC1 (single isomer, unassigned) [Example 559] | < 50 nM
CCCN(c1ccc([C@H](COC)CC(=O)O)cc1Nc1ccc(OC)nc1)C1CCOCC1 (single isomer, unassigned) [Example 575] | < 50 nM
CCC(CC(=O)O)c1ccc(N2CCC(C)CC2)c(Nc2cnc(OC)nc2)c1 (single isomer, unassigned) [Example 42, 3-(3-((2-methoxypyrimidin-5-yl)amino)-4-(4-methylpiperidin-1-yl)phenyl)pentanoic acid] | > 50 nM
COCC(CC(=O)O)c1ccc(N2C[C@@H](C)O[C@@H](C)C2)c(NC(=O)Nc2ccc(C#N)cc2)c1 (single isomer, unassigned) [Example 605 Diastereomer 1] | > 50 nM
CCC(CC(=O)O)c1ccc(N2CCC(C)CC2)c(NC(=O)Nc2ccc(C)cc2)c1 (single isomer, unassigned) [Example 46 Enantiomer 1, 3-(4-(4-Methylpiperidin-1-yl)-3-(3-(p-tolyl)ureido)phenyl)pentanoic acid] | > 50 nM
COCCN(c1ccc(C(C)(C)CC(=O)O)cc1Nc1ccc(C#N)cc1)C1CCOCC1 [Example 16, 3-(3-((4-cyanophenyl)amino)-4-((2-methoxyethyl)(tetrahydro-2H-pyran-4-yl)amino)phenyl)-3-methylbutanoic acid] | < 5 nM
CCN(c1ccc(C(C)CC(=O)O)cc1Nc1ccc(F)cc1)C1CCOCC1 (single isomer, unassigned) [Example 627, 3-(4-(ethyl(tetrahydro-2H-pyran-4-yl)amino)-3-((4-fluorophenyl)amino)phenyl) butanoic acid] | < 5 nM

Results, then the compound that gave them:

IC50 | Compound
< 5 nM | CCOc1ncc(Nc2cc([C@H](CC)CNS(=O)(=O)C(F)(F)F)ccc2N(CC)C2CCOCC2)cn1 [Example 1329, (S)-N-(2-(3-((2-ethoxypyrimidin-5-yl)amino)-4-(ethyl(tetrahydro-2H-pyran-4-yl)amino)phenyl)butyl)-1,1,1-trifluoromethanesulfonamide]
< 50 nM | COCC(CC(=O)O)c1ccc(N2CCOC[C@H]2C(C)C)c(Nc2ccc(Cl)cc2)c1 (single isomer, unassigned) [Example 910]
< 50 nM | CCOc1ncc(Nc2cc(C(CC)CC(=O)O)ccc2N(C)C2CCOCC2)cn1 (single isomer, unassigned) [Example 869, 3-(3-((2-ethoxy-pyrimidin-5-yl)amino)-4-(methyl (tetrahydro-2H-pyran-4-yl)amino)phenyl) pentanoic acid]
< 50 nM | CCN(c1ccc(C(C)CC(=O)O)cc1Nc1ccc2nc(C)sc2c1)C1CCOCC1 (single isomer, unassigned) [Example 629, 3-(4-(ethyl(tetrahydro-2H-pyran-4-yl)amino)-3-((2-methylbenzo[d]thiazol-6-yl)amino)phenyl)butanoic acid]
< 50 nM | CCC(CC(=O)O)c1cc(Nc2ccc(C#N)cn2)c(N(CC)C2CCOCC2)cc1F (single isomer, unassigned) [Example 857, 3-(5-((5-cyanopyridin-2-yl)amino)-4-(ethyl(tetra-hydro-2H-pyran-4-yl)amino)-2-fluorophenyl) pentanoic acid]
> 50 nM | CCOc1ncc(Nc2cc(C(CC)CC(C)(C)O)ccc2N2CCC(c3ccccc3)CC2)cn1 (single isomer, unassigned) [Example 1349, 4-(3-((2-Ethoxypyrimidin-5-yl)amino)-4-(4-phenylpiperidin-1-yl)phenyl)-2-methylhexan-2-ol]
< 50 nM | COCC(CC(=O)O)c1ccc(N(C)C2CCOCC2)c(Nc2ccc(C#N)cc2)c1 (single isomer, unassigned) [Example 873, 3-(3-((4-Cyanophenyl)amino)-4-(methyl(tetrahydro-2H-pyran-4-yl)amino)phenyl)-4-methoxybutanoic acid]
< 5 nM | CCc1ncc(Nc2cc([C@@H](CC)CC(=O)O)ccc2N(CC)C2CCOCC2)cn1 (single isomer, unassigned) [Example 1362]
> 50 nM | CCN(c1ccc([C@@H](CC(=O)O)C(F)(F)F)cc1NC(=O)Nc1ccc(C#N)cc1)C1CCOCC1 (single isomer, unassigned) [Example 1271]
> 50 nM | CCC(CC(=O)O)c1ccc(N2CCNCC2)c(Nc2ccc(C#N)cc2)c1 (single isomer, unassigned) [Example 671 Enantiomer 1, 3-(3-((4-Cyanophenyl)amino)-4-(piperazin-1-yl)phenyl)pentanoic acid]
< 50 nM | CCC(CC(=O)O)c1cnc(N(CC)C2CCOCC2)c(NC(=O)Nc2ccc(C)cc2)c1 (racemic) [Example 1377, (+/−)-3-(6-(Ethyl(tetrahydro-2H-pyran-4-yl)amino)-5-(3-(p-tolyl)ureido)pyridin-3-yl)pentanoic acid]
< 50 nM | CCOc1ccc(Nc2cc(C(C)CC(=O)O)ccc2N(CC)C2CCOCC2)nn1 (single isomer, unassigned) [Example 631, 3-(3-((6-ethoxypyridazin-3-yl)amino)-4-(ethyl (tetrahydro-2H-pyran-4-yl)amino)phenyl)butanoic acid]
< 50 nM | CCC1COCCN1c1ccc([C@H](COC)CC(=O)O)cc1Nc1ccc(C#N)c(F)c1 (single isomer, unassigned) [Example 1304]
> 50 nM | CCC1COCCN1c1ccc([C@H](COC)CC(=O)O)cc1Nc1ccc(C#N)c(F)c1 (single isomer, unassigned) [Example 1288]
> 50 nM | Cc1ccc(NC(=O)Nc2cc(C(C)CC(=O)O)ccc2N2C[C@@H](C)O[C@@H](C)C2)cc1 (single isomer, unassigned) [Example 751]
